Test results: publication PMC4731763, “Naturally occurring proteinaceous nanoparticles in Coptidis Rhizoma extract act as concentration-dependent carriers that facilitate berberine absorption” (Scientific Reports, 2016)
Where two headings read alike, the source gives them in different places.

Assays:
P-gp = conditions: cited from earlier work
[1] = parameters: method as in PMID 20138204; conditions: cited from earlier work
[2] = Pharmacokinetics in mice: plasma berberine exposure after oral administration; type: in vivo; conditions: both sexes, Kun-Ming, mouse
Experimental: A Shimadzu Prominence UFLCXR series HPLC (Shimadzu, Japan) and a Thermo Scientific TSQ Quantum Ultra mass spectrometer (Thermo Scientific, Waltham, MA, USA) equipped with an electrospray ionization (ESI) source were used. The samples were precipitated with 3 volumes of acetonitrile. Carbamazepine was used as the internal standard. After centrifugation (24,000 g, 6 min, 4 °C), the supernatant was mixed with an equal volume of water and 10-μL samples were injected into the LC-MS/MS system. The samples were eluted through a Hypersil Gold (C18) analytical column (5 μm, 100 × 2.1 mm) with a gradient of the aqueous phase (0.08% v/v formic acid and 2 mM ammonium acetate) and the acetonitrile phase (0 min, 85:15; 7 min, 32:68; 7.01 min, 85:15; 10 min, 85:15) at a flow rate of 0.3 mL/min. The ESI source was set to positive ion mode. Data acquisition was performed in the multiple reaction monitoring mode of the selective mass transition for each compound. The transitions from the precursor ions to the protonated fragment product ions were monitored: m/z 336.15 → m/z 322.28 for berberine and m/z 237.00 → m/z 194.31 for carbamazepine. The linear dynamic range for berberine in the tested biological samples was 0.5 to 500 ng/mL. […] The accuracy, precision, recovery, and stability tests all met the requirements of quantitative determination in biological samples. […]

mice = conditions: mouse, in vivo
Experimental: The mice (n = 20 mice per group, 10 males and 10 females) were orally administered the test materials and the reactions of the mice were recorded for 7 days. Using this method, the acute oral toxicities of the following materials were tested at the dose volume of 0.2 mL/10 g body weight (dissolved in water) and compared: (1) the Coptidis Rhizoma extract (1 or 3 g/kg); (2) the supernatant of the Coptidis Rhizoma extract (3 g/kg) after centrifugation (300,000 g, 30 min, 4 °C); (3) pure berberine (206 or 618 mg/kg, equal to the dose of berberine in the 1 and 3 g/kg extracts, respectively); (4) alkaloid extract of Coptidis Rhizoma (1259 mg/kg, equal to the dose of berberine in the 3 g/kg extract).

| Compound | Effect on P-gp (P-gp) | Toxicity in vivo after oral administration [1] | AUC(0-t) ([2]; 206 mg/kg pure berberine, read-out: Plasma berberine AUC0–24 h) [ng·h/mL] | AUC(0-t) ([2]; 618 mg/kg pure berberine, read-out: Plasma berberine AUC0–4 h) [ng·h/mL] | P-gp substrate status (P-gp) | Acute oral toxicity (survival of mice) (mice; 206 mg/kg) | Acute oral toxicity (reaction or death of mice) (mice; 618 mg/kg) |
| --- | --- | --- | --- | --- | --- | --- | --- |
| COc1cc([C@H]2Oc3cc(-c4cc(=O)c5c(O)cc(O)cc5o4)cc(OC)c3O[C@@H]2CO)ccc1O (racemic) [5′-methoxyhydnocarpin] | inhibitory effects on P-gp |  |  |  |  |  |  |
| COc1ccc2cc3[n+](cc2c1OC)CCc1cc2c(cc1-3)OCO2 [pure berberine, berberine] |  | weak toxicity | 722 | 22.1 | P-gp substrate | survived | did not show toxic reactions |
